Laboratory results as given in patent publication US9371331B2, “Modulators of methyl modifying enzymes, compositions and uses thereof” (Constellation Pharmaceuticals, Inc., priority 2012, dated 2016).
Counter-ions that a name gives are not always drawn. Like-named read-outs stand apart in the source and are kept apart here.

Assays:
[1] = tested on: H3K27me3 mark in HeLa cells; assay: H3K27me3 Alpha Hela Assay (AlphaLISA); type: cell-based; settings: 72 hrs; for EC50: read-out: H3K27me3_Alpha_HeLa_ (EC50)
Experimental: H3K27me3 Alpha Hela Assay (AlphaLISA).
Ten different doses of each test compound (in a series of 3-fold dilutions) were plated in duplicate 384-well tissue culture treated plates (Catalog #781080; Greiner Bio One; Monroe, N.C.). Hela cells grown in culture were trypsinized and counted using a Countess® cell counter (Catalog #C10281; Life Technologies, Grand Island, N.Y.). Cell were diluted to 67,000 cells per mL in 10% DMEM (Catalog #10569-010 Life Technologies. Grand Island, N.Y.) and 15 μL (1,000 cells) were plated into each well using the Biotek MicroFlo™ Select Dispenser (BioTek Instruments. Inc. Vermont, USA),) of the 384-well plate. Plates were incubated at 37° C./5% CO2 for 72 hrs. One of the duplicate plates was processed for HeLa assay and the other for viability.
To the plate processed for AlphaLISA was added 5 μL per well Cell-Histone Lysis buffer (1×) (Catalog #AL009F1 Perkin Elmer; Waltham, Mass.) and the plate was incubated at RT for 30 minutes on a plate shaker with low speed (Model#4625-Q Thermo Scientific; Waltham, Mass.). Then, 10 µL per well Histone Extraction buffer (catalog #AL009F2: Perkin Elmer; Waltham, Mass.) was added and the plate further incubated at RT for 20 min on plate shaker with low speed. To each well was then added 10 μL per well of a 5× mix of anti-K27me3 acceptor beads plus Biotinylated anti-Histone H3 (C-ter) Antibody (diluted to 3 nM final) (Catalog #AL118 Perkin Elmer; Waltham, Mass.). Dilution of the acceptor beads and then anti-Histone H3 was with 1× Histone Detection buffer (Catalog #AL009F3 Perkin Elmer; Waltham, Mass.) which was produced diluted from the 10× stock provided. The plate was sealed with an aluminum plate sealer and incubated at 23° C. for 60 min. We then added 10 μL 5× solution of Streptavidin Donor beads (Catalog #6760002 Perkin Elmer; Waltham, Mass.) (20 μg/mL final in 1× Histone Detection Buffer), sealed the plate with Aluminum plate sealer and incubated at 23° C. for 30 min. The plates were then read using an EnVision-Alpha Reader (model #2104 Perkin Elmer: Waltham, Mass.).
Data from both assays was analyzed using Assay Assistant (Constellation Pharmaceuticals In-house product) and Activity Base (IDBS Ltd. Surrey, UK) template. Data files were imported to Assay Assistant and assay conditions were specified. A unique Analysis ID was created and the data files exported to Activity Base. An analysis template was created on Activity Base to measure dose-dependent inhibition of H3K27me3 mark and cell viability respectively. Readout of DMSO wells were used to normalize the data. Resulting curves were fitted using Activity base software Model 205 (IDBS Ltd, Surrey, UK). The data was checked for quality, validated and integrated in excel format using SARview (IDBS Ltd, Surrey, UK).

[2] = biological target: EZH2 (rPRC2) (Homo sapiens, UniProt Q15910); assay: EZH2 assay: rPRC2, biotinylated oligonucleosomes, 3H SAM methyl transfer (FlashPlate scintillation); type: biochemical; settings: biotinylated oligonucleosome substrate
EZH2 (rPRC2), sequence (Q15910 whole entry): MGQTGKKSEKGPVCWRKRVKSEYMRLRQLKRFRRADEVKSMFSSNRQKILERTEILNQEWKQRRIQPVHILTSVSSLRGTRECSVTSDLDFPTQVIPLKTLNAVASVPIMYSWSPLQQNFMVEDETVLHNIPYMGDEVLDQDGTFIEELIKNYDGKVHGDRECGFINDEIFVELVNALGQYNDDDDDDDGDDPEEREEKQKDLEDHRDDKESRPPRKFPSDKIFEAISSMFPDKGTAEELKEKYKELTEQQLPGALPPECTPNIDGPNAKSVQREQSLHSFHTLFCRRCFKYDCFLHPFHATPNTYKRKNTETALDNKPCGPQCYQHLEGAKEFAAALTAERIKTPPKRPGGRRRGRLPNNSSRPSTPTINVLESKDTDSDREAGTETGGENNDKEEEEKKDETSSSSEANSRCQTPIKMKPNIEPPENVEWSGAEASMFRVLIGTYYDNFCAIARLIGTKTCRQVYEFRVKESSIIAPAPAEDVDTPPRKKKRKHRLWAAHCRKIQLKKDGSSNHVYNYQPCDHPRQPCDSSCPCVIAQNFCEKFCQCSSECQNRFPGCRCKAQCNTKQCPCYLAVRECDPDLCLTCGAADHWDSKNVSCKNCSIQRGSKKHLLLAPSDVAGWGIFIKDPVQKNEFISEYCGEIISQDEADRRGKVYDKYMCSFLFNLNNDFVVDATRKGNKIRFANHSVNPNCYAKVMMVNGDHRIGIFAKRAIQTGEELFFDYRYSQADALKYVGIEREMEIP
EZH2 (rPRC2), sequence (O75530 whole entry partner): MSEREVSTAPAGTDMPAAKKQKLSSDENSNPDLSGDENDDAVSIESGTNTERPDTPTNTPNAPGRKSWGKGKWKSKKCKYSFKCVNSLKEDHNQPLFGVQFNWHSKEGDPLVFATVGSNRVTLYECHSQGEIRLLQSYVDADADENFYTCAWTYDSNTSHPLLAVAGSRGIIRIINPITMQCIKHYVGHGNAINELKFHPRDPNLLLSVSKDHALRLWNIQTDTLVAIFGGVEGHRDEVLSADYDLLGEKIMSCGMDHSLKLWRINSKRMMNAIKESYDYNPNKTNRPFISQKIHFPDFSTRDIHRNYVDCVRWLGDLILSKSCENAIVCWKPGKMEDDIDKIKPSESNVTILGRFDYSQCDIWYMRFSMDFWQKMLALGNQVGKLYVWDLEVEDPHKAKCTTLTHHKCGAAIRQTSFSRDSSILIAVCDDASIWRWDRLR
EZH2 (rPRC2), sequence (Q15022 whole entry partner): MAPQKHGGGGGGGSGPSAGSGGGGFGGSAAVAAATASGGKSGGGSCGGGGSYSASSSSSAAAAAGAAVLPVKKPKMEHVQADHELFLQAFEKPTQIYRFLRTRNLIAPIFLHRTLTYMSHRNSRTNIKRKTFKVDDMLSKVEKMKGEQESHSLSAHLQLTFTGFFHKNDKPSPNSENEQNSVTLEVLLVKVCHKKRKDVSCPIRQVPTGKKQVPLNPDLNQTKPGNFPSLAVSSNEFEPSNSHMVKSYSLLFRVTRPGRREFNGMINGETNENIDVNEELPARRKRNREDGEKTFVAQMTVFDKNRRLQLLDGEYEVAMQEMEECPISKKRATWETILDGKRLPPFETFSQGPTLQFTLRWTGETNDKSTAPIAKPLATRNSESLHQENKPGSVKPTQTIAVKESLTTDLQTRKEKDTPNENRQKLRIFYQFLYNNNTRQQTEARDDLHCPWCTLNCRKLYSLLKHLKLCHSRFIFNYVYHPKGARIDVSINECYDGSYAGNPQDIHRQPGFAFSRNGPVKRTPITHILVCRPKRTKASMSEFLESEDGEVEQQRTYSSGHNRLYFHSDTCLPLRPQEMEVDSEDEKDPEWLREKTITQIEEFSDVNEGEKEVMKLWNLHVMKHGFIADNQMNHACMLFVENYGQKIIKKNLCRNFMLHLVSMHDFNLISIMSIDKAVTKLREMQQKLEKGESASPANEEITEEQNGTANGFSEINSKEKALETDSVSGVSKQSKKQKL

[3] = biological target: Y641N EZH2 (Homo sapiens, UniProt Q15910, Y641N); assay: Y641N EZH2 assay: as EZH2 assay, with reconstituted H3K27Me2 oligonucleosomes as substrate; type: biochemical
Y641N EZH2, sequence (Q15910 whole entry Y641N): as the sequence (Q15910 whole entry) above, with Y641N counted along it
Y641N EZH2, sequence (O75530 whole entry partner): as the sequence (O75530 whole entry partner) above
Y641N EZH2, sequence (Q15022 whole entry partner): as the sequence (Q15022 whole entry partner) above

[4] = tested on: H3K27me3 mark in HeLa cells; assay: H3K27me3 MSD Hela Assay; type: cell-based; settings: read-out: H3K27me3_MSD_HeLa_ (EC50)
Outline: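 HeLa cells treated with compound at various concentrations for 96 h at 37 °C, then lysed with high-salt extraction. H3K27me3 measured by MSD electrochemiluminescence immunoassay on total-H3 capture plates. Dose-dependent inhibition normalised to DMSO wells and fitted to curves.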

[5] = EZH2 IC50, wild-type EZH2 (rPRC2)
[6] = Y641N EZH2 IC50, Y641N mutant EZH2, H3K27Me2 oligonucleosome substrate
[7] = wild-type EZH2 (rPRC2), read-out: EZH2 IC50
[8] = Y641N mutant EZH2, H3K27Me2 oligonucleosome substrate, read-out: Y641N EZH2 IC50

Work on `COc1cc(C)[nH]c(=O)c1CNC(=O)c1c(C)n(C(C)C(C)OC)c2ccccc12` (racemic) [Compound 294, (±)-N-((4-methoxy-6-methyl-2-oxo-1,2-dihydropyridin-3-yl)methyl)-1-(3-methoxybutan-2-yl)-2-methyl-1H-indole-3-carboxamide] yielded an EC50 ([1]; Homo sapiens) of under 400 nM, an IC50 [2, 5] of under 100 nM and an IC50 [3, 6] of under 100 nM. The EC50 ([4]; Homo sapiens, HeLa, 96 h) was under 400 nM.
`COc1cc(C)[nH]c(=O)c1CNC(=O)c1c(C)n(C(C)c2ccccc2)c2ccccc12` (single isomer, unassigned) [Compound 114, (R or S)N-((4-methoxy-6-methyl-2-oxo-1,2-dihydropyridin-3-yl)methyl)-2-methyl-1-(1-phenylethyl)-1H-indole-3-carboxamide] gave an EC50 ([1]; Homo sapiens) of 400 to 2000 nM, an IC50 [2, 5] of under 100 nM and an IC50 [3, 6] of under 100 nM. It also gave an EC50 ([4]; Homo sapiens, HeLa, 96 h) of under 400 nM.
Work on `COCC(C)n1c(C)c(C(=O)NCc2c(OC)cc(C)[nH]c2=O)c2ccccc21` (single isomer, unassigned) [Compound 224, N-((4-methoxy-6-methyl-2-oxo-1,2-dihydropyridin-3-yl)methyl)-1-(1-methoxypropan-2-yl)-2-methyl-1H-indole-3-carboxamide] yielded an EC50 ([1]; Homo sapiens) of under 400 nM, an IC50 ([2]; read-out: EZH2 IC50, wild-type EZH2 (rPRC2)) of under 100 nM and an IC50 [3, 6] of under 100 nM. It also gave an EC50 ([4]; Homo sapiens, HeLa, 96 h) of under 400 nM.
With `COc1cc(C)[nH]c(=O)c1CNC(=O)c1c(C)n(C(C)C(C)OC)c2ncccc12` (single isomer, unassigned) [Compound 261, N-((4-methoxy-6-methyl-2-oxo-1,2-dihydropyridin-3-yl)methyl)-1-((2R or 2S, 3R or 3S)-3-methoxybutan-2-yl)-2-methyl-1H-pyrrolo[2,3-b]pyridine-3-carboxamide] the EC50 ([1]; Homo sapiens) was under 400 nM, the IC50 [2, 5] was under 100 nM and the IC50 [3, 6] was under 100 nM. For the same compound, the EC50 ([4]; Homo sapiens, HeLa, 96 h) was under 400 nM.
`COc1cc(C)[nH]c(=O)c1CNC(=O)c1c(C)n(C(C)C2CCOCC2)c2ncccc12` (single isomer, unassigned) [Compound 288, (R or S)-N-((4-Methoxy-6-methyl-2-oxo-1,2-dihydropyridin-3-yl)methyl)-2-methyl-1-(1-(tetrahydro-2H-pyran-4-yl)ethyl)-1H-pyrrolo[2,3-b]pyridine-3-carboxamide] showed an EC50 ([1]; Homo sapiens) of under 400 nM, an IC50 [2, 5] of under 100 nM and an IC50 [3, 6] of under 100 nM. The EC50 ([4]; Homo sapiens, HeLa, 96 h) was 400 to 2000 nM.
`COc1cc(C)[nH]c(=O)c1CNC(=O)c1c(C)n(C(C)C2CCOCC2)c2ccccc12` (single isomer, unassigned) [Compound 298, (R or S)-N-((4-methoxy-6-methyl-2-oxo-1,2-dihydropyridin-3-yl)methyl)-2-methy1-1-(1-(tetrahydro-2H-pyran-4-yl)ethyl)-1H-indole-3-carboxamide] showed an EC50 ([1]; Homo sapiens) of under 400 nM and an EC50 ([4]; Homo sapiens, HeLa, 96 h) of under 400 nM.
Work on `COc1cc(C)[nH]c(=O)c1CNC(=O)c1c(C)n(C(C)C2CCOCC2)c2cc(F)ccc12` (single isomer, unassigned) [Compound 300, (R or S)-6-fluoro-N-((4-methoxy-6-methyl-2-oxo-1,2-dihydropyridin-3-yl)methyl)-2-methyl-1-(1-(tetrahydro-2H-pyran-4-yl)ethyl)-1 H-indole-3-carboxamide] yielded an EC50 ([1]; Homo sapiens) of under 400 nM, an IC50 [2, 5] of under 100 nM and an IC50 [3, 6] of under 100 nM. It also gave an EC50 ([4]; Homo sapiens, HeLa, 96 h) of under 400 nM.
`COc1cc(C)[nH]c(=O)c1CNC(=O)c1c(C)n(C(C)C2CCNCC2)c2ccccc12` (single isomer, unassigned) [Compound 326, (R or S)—N-((4-methoxy-6-methyl-2-oxo-1,2-dihydropyridin-3-yl)methyl)-2-methyl-1-(1-(piperidin-4-yl)ethyl)-1H-indole-3-carboxamide hydrochloride] showed an EC50 ([1]; Homo sapiens) of 400 to 2000 nM, an IC50 [2, 5] of under 100 nM and an IC50 [3, 6] of under 100 nM. It also gave an EC50 ([4]; Homo sapiens, HeLa, 96 h) of 400 to 2000 nM.
In the case of `Cc1cc(C)c(CNC(=O)c2c(C)n(C(C)C3CCN(C4CN(C)C4)CC3)c3ccccc23)c(=O)[nH]1` (single isomer, unassigned) [Compound 377, (R or S)-N-((4,6-dimethyl-2-oxo-1,2-dihydropyridin-3-yl)methyl)-2-methyl-1(1-(1-(1-methylazetidin-3-yl)piperidin-4-yl)ethyl)-1 H-indole-3-carboxamide], the EC50 ([1]; Homo sapiens) is reported as 400 to 2000 nM, the IC50 [2, 5] is reported as under 100 nM and the IC50 [3, 6] is reported as under 100 nM.
With `Cc1cc(C)c(CNC(=O)c2c(C)n(C(C)c3cccc(C#N)c3)c3ccccc23)c(=O)[nH]1` (centres unmarked) [Compound 187, 1-(1-(3-cyanophenyl)ethyl)-N-((4,6-dimethyl-2-oxo-1,2-dihydropyridin-3-yl)methyl)-2-methyl-1H-indole-3-carboxamide] the EC50 ([1]; Homo sapiens) was 400 to 2000 nM, the IC50 [2, 5] was under 100 nM and the IC50 [3, 6] was 100 to 1000 nM. It also gave an EC50 ([4]; Homo sapiens, HeLa, 96 h) of 400 to 2000 nM.
In the case of `COc1cc(C)[nH]c(=O)c1CNC(=O)c1c(C)n(-c2cccc3ncccc23)c2ccccc12` [Compound 330, N-((4-methoxy-6-methyl-2-oxo-1,2-dihydropyridin-3-yl)methyl)-2-methyl-1-(quinolin-5-yl)-1H-indole-3-carboxamide], the EC50 ([1]; Homo sapiens) is reported as 400 to 2000 nM, the IC50 [2, 7] is reported as under 100 nM and the IC50 [3, 8] is reported as under 100 nM.
`COc1cc(C)[nH]c(=O)c1CNC(=O)c1c(C)n(C(C)C2CCN(C(=O)OC(C)(C)C)CC2)c2ncncc12` (centres unmarked) [Compound 332, tert-butyl 4-(1-(5-(((4-methoxy-6-methyl-2-oxo-1,2-dihydropyridin-3-yl)methyl)carbamoyl)-6-methyl-7H-pyrrolo[2,3-d]pyrimidin-7-yl)ethyl)piperidine-1-carboxylate] showed an EC50 ([1]; Homo sapiens) of 400 to 2000 nM, an IC50 [2, 7] of under 100 nM and an IC50 [3, 8] of under 100 nM.
For `COCC(C)(C)n1c(C)c(C(=O)NCc2c(OC)cc(C)[nH]c2=O)c2ccccc21` [Compound 338, 1-(1-methoxy-2-methylpropan-2-yl)-N-((4-methoxy-6-methyl-2-oxo-1,2-dihydropyridin-3-yl)methyl)-2-methyl-1H-indole-3-carboxamide], the EC50 ([1]; Homo sapiens) was 400 to 2000 nM, the IC50 [2, 5] was under 100 nM and the IC50 [3, 6] was 100 to 1000 nM.
`COc1cc(C)[nH]c(=O)c1CNC(=O)c1c(C)n(-c2cccc3c2CCCN3)c2ccccc12` [Compound 339, N-((4-methoxy-6-methyl-2-oxo-1,2-dihydropyridin-3-yl)methyl)-2-methyl-1-(1,2,3,4-tetrahydroquinolin-5-yl)-1H-indole-3-carboxamide] was tested, and the EC50 ([1]; Homo sapiens) was under 400 nM, the IC50 [2, 7] was under 100 nM and the IC50 [3, 8] was under 100 nM.
With `COc1cc(C)[nH]c(=O)c1CNC(=O)c1c(C)n(C(C)C2CCN(S(C)(=O)=O)CC2)c2ncncc12` (centres unmarked) [Compound 370] the “H3K27me3_Alpha_HeLa_ (EC50)” value [1] was “*(3.33 μM)”, the IC50 [2, 7] was under 100 nM and the IC50 [3, 8] was under 100 nM.
`COc1cc(C)[nH]c(=O)c1CNC(=O)c1c(C)n(-c2cccc3c2CCCN3S(C)(=O)=O)c2ccccc12` [Compound 371, N-((4-methoxy-6-methyl-2-oxo-1,2-dihydropyridin-3-yl)methyl)-2-methyl-1-(1-(methylsulfonyl)-1,2,3,4-tetrahydroquinolin-5-yl)-1H-indole-3-carboxamide] was tested, and the “H3K27me3_Alpha_HeLa_ (EC50)” value [1] was “*(3.33 μM)”, the IC50 [2, 7] was under 100 nM and the IC50 [3, 8] was under 100 nM.
For “(±)-1-(1-(4,4-difluorocyclohexyl)ethyl)-N-((4-methoxy-6-methyl-2-oxo-1,2-dihydropyridin-3-yl)methyl)-2-methyl-1H-indole-3-carboxamide [Compound 304]”, the EC50 [1] was under 400 nM, the IC50 [2, 7] was under 100 nM and the IC50 [3, 8] was under 100 nM. It also gave an EC50 ([4]; HeLa cells, MSD, 96 hours) of under 400 nM.
